The values that follow are results of earlier work, collected in patent publication US20120177729A1, “SUSTAINED RELEASE COMPOSITION OF RANOLAZINE” (Lupin Limited, priority 2009, published 2012).

The conditions of data set [1]: in vivo.

Turning to `COc1ccccc1OCC(O)CN1CCN(CC(=O)Nc2c(C)cccc2C)CC1` (racemic) [Ranolazine, (±)-N-(2,6-dimethylphenyl)-4-[2-hydroxy-3-(2-methoxyphenoxy)propyl]-1-piperazine-acetamide], the Solubility entry (low pH that occurs in the stomach) was “relatively high”. In addition, the “Solubility in aqueous solutions” value (pH above about 6.5) is recorded as “relatively insoluble”. Moreover, the Plasma half-life entry in data set [1] is “relatively short”.
